# Reference: patent US20180133194A1, “METHOD OF TREATING INFLAMMATION USING NATURAL COMPOUNDS AND/OR DIET” (UNIVERSITY OF FLORIDA RESEARCH FOUNDATION, INCORPORATED, priority 2015, published 2018)
# How the values were obtained:
# [1] = in vivo; cited from earlier work
# hypoxic-ischemic injury = settings: neonatal rat, cited from earlier work
# [2] = cited from earlier work
# inflammatory cytokines = test: Cytokine array (RodentMAP) on plasma in paclitaxel-induced model of inflammation; type: in vivo, mice; settings: compared to control; for macrophage-derived chemokine [MDC/CCL22] level: paclitaxel alone
# Method: FIG. 1. Using a drug induced model of inflammation, a cytokine array was used to measure inflammatory cytokines, immune system alteration and the ability of our treatment to attenuate and re-establish normal status. Plasma was isolated from mice treated with the different treatments (control, paclitaxel [PTX, 40 mg/kg], NU.001[CS] and PTX+NU.001[PTX+CS]). * indicates p<0.05 and ** indicates p<0.01, one-way ANOVA or t-test, compared to control. # indicates p<0.05 and ## indicates p<0.01, one-way ANOVA or t-test, compared to PTX.
# FIG. 2. NU.001 reduces inflammatory signals in a drug-induced model of inflammation. Animals received oral delivery of NU.001 for 3-4 weeks or a control diet. The microtubule stabilizing agent paclitaxel [40 mg/kg cumulative] was administered to induce inflammation. A cytokine array was used to measure inflammation and immune system status and assess the ability of NU.001 to attenuate or re-establish normal cytokine levels. Plasma was isolated from mice treated with the different treatments (control, paclitaxel, NU.001, and paclitaxel+NU.001). […] Treatment composition is as follows: [1] Control=55% carbohydrates, 30% proteins, 15% fat, [2]
# FIGS. 4A-4B. NU.001 increases levels of Leukemia inhibitory factor [LIF] and CCL22. A. After being fed for 3-4 weeks with control diet or NU.001 diet, plasma was isolated for cytokine screening. […] LIF has been proposed to prevent or treat peripheral neuropathy. *, p <0.05, t-test.
# The chemotherapeutic agent paclitaxel was used to induce inflammation. Animals were stressed by treating with paclitaxel [40 mg/kg cumulative], resulting in changes in a number of cytokines and related molecules involved in inflammation processes. Animals were treated with NU.001 for 3-4 weeks and blood was taken for plasma isolation. A panel of cytokines was screened using RodentMAP [Myriad/RBM].
# Levels of Leukemia inhibitory factor (LIF) were compared in animals treated with control diet or NU.001 diets. After 4 weeks of treatment, blood was taken and plasma was isolated to measure levels of cytokines. […]
# [3] = oral doses as high as 500 mg/kg, rodents; cited from earlier work
# [4] = 500 mg/kg/day, divided dosage, 13 weeks, pre-fed dogs; cited from earlier work
compound,measurement,setting,value
"C[S+]([O-])CCCCN=C=S (stereo not drawn) [SFN, sulforaphane]",terminal elimination phase,[1],long
same,time to peak plasma levels,[1],≤ 2 h
same,infarct ratio,hypoxic-ischemic injury; at 24 hours after hypoxic ischemia,reduced
same,expression of Nrf2 antioxidative transcription factor in the brain,hypoxic-ischemic injury; hypoxic-ischemic injury,increased
same,number of apoptotic cells,hypoxic-ischemic injury; hypoxic-ischemic injury,significantly decreased
same,safety of dose,[2]; 100 mg SFN from oral intake of 68 grams of broccoli sprouts,safe non-toxic
same,adverse effects of administration in humans,[2]; SFN or SFN-enriched dietary origin items such as broccoli sprouts,not demonstrated any significant adverse effects
CC(=O)O[C@H]1C(=O)[C@@]2(C)[C@H]([C@H](OC(=O)c3ccccc3)[C@]3(O)C[C@H](OC(=O)[C@H](O)[C@@H](NC(=O)c4ccccc4)c4ccccc4)C(C)=C1C3(C)C)[C@]1(OC(C)=O)CO[C@@H]1C[C@@H]2O [paclitaxel],inflammation related cytokines,inflammatory cytokines; paclitaxel 40 mg/kg cumulative alone,up-regulated
same,macrophage-derived chemokine [MDC/CCL22] level,inflammatory cytokines,Lower levels
same,macrophage-derived chemokine [MDC/CCL22] level,inflammatory cytokines; listed as Paclitaxel,decrease
epigallocatechin-3-gallate [EGCG],genotoxicity and short term toxicity,[3],no genotoxic or short term toxicity
same,adverse events or toxicity,[4],no adverse events or toxicity
